The test system of the experiment is SW48 colorectal cancer cells. In words: Cell-Titer Glo measurement of growth-inhibitory activity in SW48 cells. The experiment is classed as cell-based. Particulars: Homo sapiens, 120 h, cell viability on day 5, Cell-titer Glo, baseline subtracted, 4PL fit, read-out: SW48_GI50. The protocol:
Example A. Cell-Titer Glo Measurement of Growth-Inhibitory Activity in SW48 Cells
This cell-based assay measures growth-inhibitory activity of selected WRN inhibitors in SW48 colorectal cancer cells. SW48 cell line (#CCL-231) was purchased from American type culture collection (ATCC). Cells were cultured following ATCC instructions. The base medium for this cell line is ATCC-formulated Leibovitz's L-15 Medium (#30-2008). To prepare complete medium, fetal bovine serum was added at a final concentration of 10%. Antibiotics including penicillin and streptomycin (#SV30010) were purchased from Cytiva and added into complete medium to prevent bacteria contamination. Cells with a passage number of below 20 were used in this cell-based assay. One day before the assay, cells were resuspended in complete medium and seeded into 96-well plates at a final density of 2000 cells per well. One extra plate was added to measure baseline viability on day 1 before compound treatment. Baseline cell viability was measured using Promega Cell-titer Glo reagent (#G7573) following the protocol provided by the manufacture. Compounds were dissolved in DMSO at a stock concentration of 10 mmol/L. Three-fold serial dilution was performed using DMSO to prepare master plates. Compounds were further diluted using complete medium and added into assay plates. The final concentration of DMSO was 0.2% in assay plates. Cell viability was measured on day 5 using Promega Cell-titer Glo reagent following the same protocol provided by the manufacture. Assay plates were kept on orbital shaker (300 rounds per min) for 2 min and then kept in 37° C. incubator for another 10 minutes. Cell-titer Glo luminescence signal was measured using i3x plate reader. Baseline cell viability was subtracted for growth inhibition 50 (GI50) estimate using GraphPad Prism following the four-parameter logistic (4PL) curve-fitting mathematical model.
With `CCc1c(N2CCN(C(=O)c3ncc4ccccc4c3O)CC2)c(=O)n2nc(C3=CCOCC3)nc2n1CC(=O)Nc1ccc(C(F)(F)F)cc1Cl` [Example 1, N-[2-Chloro-4-(trifluoromethyl)phenyl]-2-[2-(3,6-dihydro-2H-pyran-4-yl)-5-ethyl-6-[4-(4-hydroxyisoquinoline-3-carbonyl)piperazin-1-yl]-7-oxo-[1,2,4]triazolo[1,5-a]pyrimidin-4-yl]acetamide], the GI50 was under 100 nM. The figure for `CCc1c(N2CCN(C(=O)c3nc4ccccc4cc3O)CC2)c(=O)n2nc(C3=CCOCC3)nc2n1CC(=O)Nc1ccc(C(F)(F)F)cc1Cl` [Example 2, N-[2-Chloro-4-(trifluoromethyl)phenyl]-2-[2-(3,6-dihydro-2H-pyran-4-yl)-5-ethyl-6-[4-(3-hydroxyquinoline-2-carbonyl)piperazin-1-yl]-7-oxo-[1,2,4]triazolo[1,5-a]pyrimidin-4-yl]acetamide] is under 100 nM; for `CCc1c(N2CCN(Cc3ncccc3O)CC2)c(=O)n2nc(C3=CCOCC3)nc2n1CC(=O)Nc1ccc(C(F)(F)F)cc1Cl` [Example 4, N-[2-chloro-4-(trifluoromethyl)phenyl]-2-[2-(3,6-dihydro-2H-pyran-4-yl)-5-ethyl-6-[4-[(3-hydroxy-2-pyridyl)methyl]piperazin-1-yl]-7-oxo-[1,2,4]triazolo[1,5-a]pyrimidin-4-yl]acetamide] it is 100 to 1000 nM. With `CCc1c(N2CCN(C(=O)c3c(O)ccc4cccnc34)CC2)c(=O)n2nc(C3=CCOCC3)nc2n1CC(=O)Nc1ccc(C(F)(F)F)cc1Cl` [Example 5, N-[2-chloro-4-(trifluoromethyl)phenyl]-2-[2-(3,6-dihydro-2H-pyran-4-yl)-5-ethyl-6-[4-(7-hydroxyquinoline-8-carbonyl)piperazin-1-yl]-7-oxo-[1,2,4]triazolo[1,5-a]pyrimidin-4-yl]acetamide], the GI50 was under 100 nM. Take `CCc1c(N2CCN(C(=O)c3c(O)ccc4cccnc34)CC2)c(=O)n2nc(N3CCC4(CCCO4)CC3)nc2n1CC(=O)Nc1ccc(C(F)(F)F)cc1Cl` [Example 6, N-(2-chloro-4-(trifluoromethyl)phenyl)-2-(5-ethyl-6-(4-(7-hydroxyquinoline-8-carbonyl)piperazin-1-yl)-7-oxo-2-(1-oxa-8-azaspiro[4.5]decan-8-yl)-[1,2,4]triazolo[1,5-a]pyrimidin-4(7H)-yl)acetamide]: the GI50 was 100 to 1000 nM. `CCc1c(N2CCN(Cc3ncccc3O)CC2)c(=O)n2nc(N3CCC4(CCCO4)CC3)nc2n1CC(=O)Nc1ccc(C(F)(F)F)cc1Cl` [Example 7, N-(2-chloro-4-(trifluoromethyl)phenyl)-2-(5-ethyl-6-(4-((3-hydroxypyridin-2-yl)methyl)piperazin-1-yl)-7-oxo-2-(1-oxa-8-azaspiro[4.5]decan-8-yl)-[1,2,4]triazolo[1,5-a]pyrimidin-4(7H)-yl)acetamide]: the GI50 fell in the range of 1000 to 5000 nM. As for `CCc1c(N2CCN(C(=O)c3c(O)ccc4cccnc34)CC2)c(=O)n2nc(-c3ccc(S(C)(=O)=O)cc3)nc2n1CC(=O)Nc1ccc(C(F)(F)F)cc1Cl` [Example 8, N-(2-Chloro-4-(trifluoromethyl)phenyl)-2-(5-ethyl-6-(4-(7-hydroxyquinoline-8-carbonyl)piperazin-1-yl)-2-(4-(methylsulfonyl)phenyl)-7-oxo-[1,2,4]triazolo[1,5-a]pyrimidin-4(7H)-yl)acetamide], the GI50 is under 100 nM. As for `CCc1c(N2CCN(Cc3ncccc3O)CC2)c(=O)n2nc(-c3ccc(S(C)(=O)=O)cc3)nc2n1CC(=O)Nc1ccc(C(F)(F)F)cc1Cl` [Example 9, N-(2-Chloro-4-(trifluoromethyl)phenyl)-2-(5-ethyl-6-(4-((3-hydroxypyridin-2-yl)methyl)piperazin-1-yl)-2-(4-(methylsulfonyl)phenyl)-7-oxo-[1,2,4]triazolo[1,5-a]pyrimidin-4(7H)-yl)acetamide], the figure is 100 to 1000 nM; as for `CCc1c(N2CCN(Cc3ncccc3O)CC2)c(=O)n2nc(-c3ccc(P(C)(C)=O)cc3)nc2n1CC(=O)Nc1ccc(C(F)(F)F)cc1Cl` [Example 10, N-(2-Chloro-4-(trifluoromethyl)phenyl)-2-(2-(4-(dimethylphosphoryl)phenyl)-5-ethyl-6-(4-((3-hydroxypyridin-2-yl)methyl)piperazin-1-yl)-7-oxo-[1,2,4]triazolo[1,5-a]pyrimidin-4(7H)-yl)acetamide], under 100 nM.

These data come from patent US20260226085A1, “HETEROCYCLIC COMPOUNDS AS WRN INHIBITORS” (Synnovation Therapeutics, Inc., priority 2023, published 2026).
